In patent EP0488301A1, “New benzopyran compounds with pharmacological activity” (J. URIACH & CIA. S.A., priority 1990, dated 1992):
pEC50, pIC50: −log10 of the molar value. Like-named read-outs stand apart in the source and are kept apart here.

Experiments:
[1] = system: portal vein isolated from rat; experiment: Test 1: Inhibition of the contraction induced by noradrenaline in portal vein isolated from rat; format: cell-based; details: contraction induced by noradrenaline (3µM), compounds incubated for 30 minutes, 50% inhibition versus the basal response, read-out: IC₅₀
Description: Test 1: Inhibition of the contraction induced by noradrenaline in portal vein isolated from rat.
Portal vein was extracted from adult male rats (between 200 and 250 g of body weight), which had been stunned by a blow in the head. Portal vein was installed into an isolated organ bath (Letica) containing a physiological saline solution (Hamilton et al., Br. J. Pharmacol., 1986, 88, 103-111) at 37 °C and a gas bubbler (5% CO₂ and 95% O₂). Contractions were induced by noradrenaline (3µM) and were reverted after thoroughly washing with physiological saline solution. Portal vein contraction was measured with an isometric force transducer and with an initial tension of 1 g. After two contractions with noradrenaline, performed in order to measure the tissue's basal response, the tested compounds were incubated for 30 minutes and a new contraction was induced. The concentration that produces a 50% inhibition (IC₅₀) versus the basal response was calculated.

[2] = system: Spontaneously hypertense rats; experiment: Test 2: Lowering of the arterial pressure in conscious hypertense rats; format: in vivo, rat; details: dose which produces a decrease of 30 mm Hg of the systolic arterial pressure, 3 doses and 3 animals per dose; for ED (30 mmHg decrease): Rattus norvegicus, po, read-out: ED₃₀; for ED₃₀: p.o.
Description: Test 2: Lowering of the arterial pressure in conscious hypertense rats.
Spontaneously hypertense rats (between 200 and 250 g of body weight) of more than 8 weeks of age have been used. Diastolic and systolic arterial pressure of the rat was measured at the caudal artery using a special sphygnomanometer (Letica 5007 and 5007/4) attached to the animal's tail. To ensure rapid and reliable data, animals were placed in a heating plate at 37°C, with the aim to produce a vasodilatation that ensured a better fixation of the rat tail to the transducer chamber. During the experiment, rats are conscious and fixed to a clamp. The tested products were administered orally. Arterial pressure was measured every 30 minutes and 10 minutes before the administration of the tested compound. The ED₃₀ (dose which produces a decrease of 30 mm Hg of the systolic arterial pressure) was calculated for each compound, using 3 doses and 3 animals per dose.

[3] = system: trachea isolated from guinea pig; experiment: Test 3: Direct relaxation of the trachea isolated from guinea pig; format: cell-based; details: Cavia porcellus, 50% of the maximum relaxation (relaxation induced by isoproterenol at 1x10⁻⁶ M), cumulative addition, read-out: EC₅₀
Description: Test 3 -Direct relaxation of the trachea isolated from guinea pig.
This test was performed according to the experimental model described by Emmerson, J. and Mackay, D. (J. Pharm. Pharmacol.,1979,31, 798). Tracheas were extracted from male guinea pigs of 400 g of body weight, which had been stunned by a blow in the head. Then, tracheas were cut in zigzag and placed into an isolated organ bath (Letica) containing Krebs-Henseleit solution at 37°C and were bubbled with carbogen (95% O₂ and 5% CO₂). The relaxation of the trachea was measured using an isometric force transducer. The basal tension was 0.5 g. The tested compounds were accumulatively added to the bath and the effective concentration which produces a 50% of the maximum relaxation (EC₅₀) was calculated.

SMILES | pIC50 ([1]; Rattus norvegicus, 0.5 h) | pEC50 [3] | pIC50 [1] | ED (30 mmHg decrease) [2] [mg/kg] | ED₃₀ [2] [mg/kg]
CC1(C)Oc2ccc(C#N)cc2[C@@H](NC(=S)N2CCCC2)[C@@H]1O (relative stereo) [Compound 1, Trans 3,4-dihydro-2,2-dimethyl-3-hydroxy-4-(1-pyrrolidinylthiocarbonylamino)-2H-1-benzopyran-6-carbonitrile] | 5.51 | – | – | > 3 | –
CC1(C)Oc2ccc(C#N)cc2[C@@H](NC(=S)N2CCCCC2)[C@@H]1O (relative stereo) [Compound 3, Trans 3,4-dihydro-2,2-dimethyl-3-hydroxy-4-(1-piperidinylthiocarbonylamino)-2H-1-benzopyran-6-carbonitrile] | 5.38 | 6.10 | – | 0.5 | –
CN1CCN(C(=S)N[C@@H]2c3cc(C#N)ccc3OC(C)(C)[C@H]2O)CC1 (relative stereo) [Compound 7, Trans 3,4-dihydro-2,2-dimethyl-3-hydroxy-4-(4-methyl-1-piperazinylthiocarbonylamino)-2H-1-benzopyran-6-carbonitrile] | 5.28 | 5.89 | – | 0.17 | –
CC(C)(C)OC(=O)N1CCCCC1C(=O)N[C@@H]1c2cc(C#N)ccc2OC(C)(C)[C@H]1O (relative stereo) [Compound 13, Trans 3,4-dihydro-2,2-dimethyl-3-hydroxy-4-(1-tert-butoxycarbonyl-2-piperidinylcarbonylamino)-2H-1-benzopyran-6-carbonitrile] | 4.51 | 5.22 | – | 0.18 | –
CC1(C)Oc2ccc(C#N)cc2[C@@H](NC(=O)C2CCCCC2)[C@@H]1O (relative stereo) [Compound 45, Trans 4-cyclohexylcarbonylamino-3,4-dihydro-2,2-dimethyl-3-hydroxy-2H-1-benzopyran-6-carbonitrile] | 5.46 | 6.40 | – | 0.65 | –
CC(C)COC(=O)N1CCC[C@H]1C(=O)N[C@@H]1c2cc(C#N)ccc2OC(C)(C)[C@H]1O (single isomer, unassigned) [33(A)] | – | – | < 5.00 | – | 0.3
CC(C)COC(=O)N1CCC[C@H]1C(=O)N[C@@H]1c2cc(C#N)ccc2OC(C)(C)[C@H]1O (single isomer, unassigned) [33(B)] | – | 5.04 | 6.52 | – | <0.1
CC(C)(C)OC(=O)N1CCC[C@H]1C(=O)N[C@H]1c2cc(C#N)ccc2OC(C)(C)[C@@H]1O [28(A), Trans (3R,4S)-3,4-dihydro-2,2-dimethyl-3-hydroxy-4-[(2S)-1-tert-butoxycarbonyl-2-pyrrolidinylcarbonylamino]-2H-1-benzopyran-6-carbonitrile] | < 5.00 | – | – | – | –
CC(C)(C)OC(=O)N1CCC[C@H]1C(=O)N[C@@H]1c2cc(C#N)ccc2OC(C)(C)[C@H]1O [28(B), Trans (3S,4R)-3,4-dihydro-2,2-dimethyl-3-hydroxy-4-[(2S)-1-tert-butoxycarbonyl-2-pyrrolidinylcarbonylamino]-2H-1-benzopyran-6-carbonitrile] | 5.59 | 5.32 | – | – | 1.0

The next lines start with results.

pIC50 ([1]; Rattus norvegicus, 0.5 h) | pEC50 [3] | pIC50 [1] | SMILES | ED (30 mmHg decrease) [2] [mg/kg] | ED₃₀ [2] [mg/kg]
5.60 | 5.60 | – | CC1(C)Oc2ccc(C#N)cc2[C@@H](NC(=O)[C@@H]2CCCN2C(=O)Oc2ccccc2)[C@@H]1O (mixture of isomers) [Compound 34, Trans 3,4-dihydro-2,2-dimethyl-3-hydroxy-4-[(2S)-1-phenoxycarbonyl-2-pyrrolidinylcarbonylamino]-2H-1-benzopyran-6-carbonitrile] | 3 | –
– | 6.05 | – | CC1(C)Oc2ccc(C#N)cc2[C@@H](NC(=O)[C@@H]2CCCN2C(=O)OCc2ccccc2)[C@@H]1O (mixture of isomers) [Compound 35, Trans 3,4-dihydro-2,2-dimethyl-3-hydroxy-4-[(2S)-1-benzyloxycarbonyl-2-pyrrolidinylcarbonylamino]-2H-1-benzopyran-6-carbonitrile] | 0.05 | –
6.30 | – | – | COc1cccc(COC(=O)N2CCC[C@H]2C(=O)N[C@@H]2c3cc(C#N)ccc3OC(C)(C)[C@H]2O)c1 (mixture of isomers) [Compound 58, Trans 3,4-dihydro-2,2-dimethyl-3-hydroxy-4-[(2S)-1-[(3-methoxyphenyl)methyloxycarbonyl]-2-pyrrolidinylcarbonylamino)-2H-1-benzopyran-6-carbonitrile] | < 1 | –
6.70 | 7.00 | – | CC1(C)Oc2ccc(C#N)cc2[C@@H](NC(=O)[C@@H]2CCCN2C(=O)OCc2cccc(Cl)c2)[C@@H]1O (mixture of isomers) [Compound 60, Trans 3,4-dihydro-2,2-dimethyl-3-hydroxy-4-[(2S)-1-[(3-chlorophenyl)methyloxycarbonyl]-2-pyrrolidinylcarbonylamino)-2H-1-benzopyran-6-carbonitrile] | < 0.5 | –
6.10 | 6.00 | – | CC1(C)Oc2ccc(C#N)cc2[C@@H](NC(=O)C2CCCCN2C(=O)Oc2ccccc2)[C@@H]1O (relative stereo) [Compound 18, Trans 3,4-dihydro-2,2-dimethyl-3-hydroxy-4-(1-phenyloxycarbonyl-2-piperidinylcarbonylamino)-2H-1-benzopyran-6-carbonitrile] | 0.7 | –
6.10 | 5.35 | – | CC1(C)Oc2ccc(C#N)cc2[C@@H](NC(=O)C2CCCCN2C(=O)OCc2ccccc2)[C@@H]1O (relative stereo) [Compound 19, Trans 3,4-dihydro-2,2-dimethyl-3-hydroxy-4-(1-benzyloxycarbonyl-2-piperidinylcarbonylamino)-2H-1-benzopyran-6-carbonitrile] | 0.7 | –
5.62 | – | – | CC1(C)Oc2ccc(C#N)cc2[C@H](NC(=O)[C@@H]2CCCN2C(=O)OCc2ccccc2)[C@H]1O [35(A), Trans (3R,4S)-3,4-dihydro-2,2-dimethyl-3-hydroxy-4-[(2S)-1-benzyloxy-carbonyl-2-pyrrolidinylcarbonylamino]-2H-1-benzopyran-6-carbonitrile] | – | –
6.70 | – | – | CC1(C)Oc2ccc(C#N)cc2[C@@H](NC(=O)[C@@H]2CCCN2C(=O)OCc2ccccc2)[C@@H]1O [35(B), Trans (3S,4R)-3,4-dihydro-2,2-dimethyl-3-hydroxy-4-[(2S)-1-benzyloxy-carbonyl-2-pyrrolidinylcarbonylamino]-2H-1-benzopyran-6-carbonitrile] | – | –
